Measurements: patent publication US5968823A, “Glycine transporter-transfected avian cells and uses thereof” (Allelix Neuroscience Inc., priority 1998, dated 1999)
Read-outs that look alike come from different tables or passages of the source.

Key:
[1] = target: glycine site on the NMDA receptor; experiment: [3H]MK-801 binding test operated to identify antagonists of the NMDA-glycine site; details: rat cortex/hippocampus membranes; glutamate 10 μM, glycine 200 nM, 2.5 nM [3H]MK-801, 1 hour room temperature; FIG. 2A; read-out: concentration of antagonist resulting in about a 50% effect on [3H]MK-801 binding
Description: Sterner and Calligaro, Soc. Neurosci.
The membrane preparation included the following steps:
1. Sacrifice and decapitate four rats; remove cortices and hippocampi.
3. Centrifuge tissue at 1000×g, 10 minutes. Save supernatant.
4. […] Discard the supernatant.
5. […] Stir the suspension on ice for one hour.
6. […] Leave on ice for 20 minutes.
The final volume of the assay was 200 μl.

NMDA receptor = experiment: Calcium flux (45Ca++ accumulation) in primary neuronal cortical cell cultures; format: cell-based, rat; details: L-689,560 50 μM with NMDA 500 μM; 10 minutes room temperature; FIG. 3
Description: A functional ion-flux assay used to measure the effect of compounds identified by the present invention relates to the ability to enhance or inhibit calcium flux through the NMDA receptor. This test is performed on suitable cell cultures that have membrane-bound NMDA receptors and glycine transporters. Such cells include neuronal cells generally, including those of the central nervous system, including brain, and cell lines derived therefrom, and any other cell that has been induced or transfected to express NMDA receptors. Calcium used in such a test is commonly the ^45 Ca isotope, although other calcium measuring techniques can be used as well, such as calcium-associated fluorescence and the like. However the calcium is monitored, calcium flux is enhanced or inhibited as a result of the discrete addition of a compound of the present invention. An advantage of this system is that it allows one to monitor the net effect on NMDA receptor function of a compound that interacts with the glycine site on the NMDA receptor and the glycine transporter.
This example illustrates a protocol for measuring calcium flux in primary neuronal cells, which is an indication of NMDA receptor activation. […]
The tissue was chopped with a scalpel and then triturated with a glass pipet that had been fire polished. […] Cells were counted in a suitable counting chamber. […]

GlyT-1c = target: T1, GlyT-1c (Homo sapiens, UniProt P48067); experiment: Inhibition of [3H]glycine uptake in QT-6 cells transiently transfected with GlyT-1c; format: cell-based; details: for selectivity GlyT-1c relative to GlyT-2: comparison of pIC50 at GlyT-1c and GlyT-2 in transfected QT-6 cells
T1 construct: expressed in transfected cells; host or cells: QT-6 quail fibroblast cells (ATCC CRL-1708), transient transfection
T1 sequence (P48067 1-706): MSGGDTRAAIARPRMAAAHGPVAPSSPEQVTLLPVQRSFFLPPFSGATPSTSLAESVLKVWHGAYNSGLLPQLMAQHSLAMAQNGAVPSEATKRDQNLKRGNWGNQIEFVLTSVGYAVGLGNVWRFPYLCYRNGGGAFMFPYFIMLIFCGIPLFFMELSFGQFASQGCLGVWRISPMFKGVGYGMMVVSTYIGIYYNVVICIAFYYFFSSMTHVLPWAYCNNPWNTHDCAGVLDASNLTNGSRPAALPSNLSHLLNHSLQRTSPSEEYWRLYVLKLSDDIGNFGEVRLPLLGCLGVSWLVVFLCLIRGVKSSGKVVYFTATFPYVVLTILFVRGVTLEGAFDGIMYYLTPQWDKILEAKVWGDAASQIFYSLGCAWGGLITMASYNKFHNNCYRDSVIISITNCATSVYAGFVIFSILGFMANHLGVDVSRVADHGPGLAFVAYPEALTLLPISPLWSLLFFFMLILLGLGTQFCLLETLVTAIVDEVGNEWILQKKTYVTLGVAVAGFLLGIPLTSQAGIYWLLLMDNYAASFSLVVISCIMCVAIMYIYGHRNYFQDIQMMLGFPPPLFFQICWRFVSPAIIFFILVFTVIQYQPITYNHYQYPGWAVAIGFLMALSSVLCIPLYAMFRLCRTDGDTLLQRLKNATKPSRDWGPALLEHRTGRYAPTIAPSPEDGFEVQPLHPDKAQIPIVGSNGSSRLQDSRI
Description: (§1) This example sets forth methods and materials used for growing and transfecting QT-6 cells.
The human GlyT-1c (hGlyT-1c) clone used contains the sequence of hGlyT-1c [SEQ ID NO:3] from nucleotide position 213 to 2336 cloned into the pRc/CMV vector (Invitrogen) as a Hind III-Xba I fragment as described in Kim et al., supra. The Hind III-Xba fragment of hGlyT-1c from this clone was then subcloned into the pRc/RSV vector. Transfection experiments were performed with GlyT-1c in both the pRc/RSV and pRc/CMV expression vectors.
(§2) The following four day procedure for the tranfections was used:
(§3) On day 1, QT-6 cells were plated at a density of 1×10^6 cells in 10 ml of complete QT-6 medium in 100 mm dishes.
(§4) On day 2, the medium was aspirated and the cells were washed with 10 ml of PBS followed by 10 ml of TBS. The TBS was aspirated, then 1 ml of the DEAE/DNA mix was added to the plate. The plate was swirled in the hood every 5 minutes. After 30 minutes, 8 ml of 80 μM chloroquine in QT-6 medium was added and the culture was incubated for 2.5 hours at 37° C. and 5% CO2. The medium was then aspirated and the cells were washed two times with complete QT-6 medium, then […] complete QT-6 medium was added and the cells were returned to the incubator.
(§5) On day 3, the cells were removed with trypsin/EDTA as described above, and plated into the wells of 96-well assay plates at approximately 2×10^5 cells/well.
(§6) On day 4, glycine transport was assayed as described in Example 2.
(§7) This example illustrates a method for the measurement of glycine uptake by transfected cultured cells.
(§8) Transient GlyT-transfected cells or control ("mock") cells grown in accordance with Example 1 were washed three times with HEPES buffered saline (HBS). The mock cells were treated precisely as the GlyT-transfected cells except that the transfection procedure omitted any cDNA. The cells were incubated 10 minutes at 37° C., after which a solution was added containing 50 nM [^3 H] glycine (17.5 Ci/mmol) and either (a) no potential competitor, (b) 10 mM nonradioactive glycine or (c) a concentration of a candidate drug. […] The cells were then incubated another 20 minutes at 37° C., after which the cells were aspirated and washed three times with ice-cold HBS. The cells were harvested, scintillant was added to the cells, the cells were shaken for 30 minutes, and the radioactivity in the cells was counted using a scintillation counter. Data were compared between the cells contacted or not contacted by a candidate agent, and between cells having GlyT-1 activity versus cells having GlyT-2 activity, depending on the assay being conducted.

GlyT-2 = target: T2, GlyT-2 (Rattus norvegicus, UniProt P58295); experiment: Inhibition of [3H]glycine uptake in QT-6 cells transiently transfected with GlyT-2; format: cell-based
T2 construct: expressed in transfected cells; host or cells: QT-6 quail fibroblast cells (ATCC CRL-1708), transient transfection
T2 sequence (P58295 1-799): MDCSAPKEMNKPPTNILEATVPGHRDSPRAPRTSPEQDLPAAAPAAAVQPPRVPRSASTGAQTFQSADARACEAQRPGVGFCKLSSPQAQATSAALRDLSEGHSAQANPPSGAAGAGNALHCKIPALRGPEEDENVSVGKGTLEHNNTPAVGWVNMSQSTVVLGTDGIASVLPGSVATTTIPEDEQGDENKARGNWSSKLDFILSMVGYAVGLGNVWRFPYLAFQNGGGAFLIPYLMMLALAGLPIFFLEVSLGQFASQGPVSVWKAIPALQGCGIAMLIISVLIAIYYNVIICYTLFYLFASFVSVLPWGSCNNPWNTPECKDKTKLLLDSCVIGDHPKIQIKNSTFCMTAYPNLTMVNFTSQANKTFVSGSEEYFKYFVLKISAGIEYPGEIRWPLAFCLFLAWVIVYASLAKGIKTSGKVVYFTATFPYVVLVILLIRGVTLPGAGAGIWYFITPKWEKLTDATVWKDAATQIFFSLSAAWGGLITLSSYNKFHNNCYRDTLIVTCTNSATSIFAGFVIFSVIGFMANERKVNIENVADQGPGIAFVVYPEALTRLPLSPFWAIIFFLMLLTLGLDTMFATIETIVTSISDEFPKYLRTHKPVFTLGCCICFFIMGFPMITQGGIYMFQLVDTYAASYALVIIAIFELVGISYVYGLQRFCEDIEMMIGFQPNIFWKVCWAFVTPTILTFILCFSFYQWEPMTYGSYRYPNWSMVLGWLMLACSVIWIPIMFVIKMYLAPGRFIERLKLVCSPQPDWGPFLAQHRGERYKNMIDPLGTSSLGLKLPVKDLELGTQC
Description: as §1, §2, §3, §4, §5, §6, §7, §8

[2] = target: glycine site on the NMDA receptor; details: read-out: concentration of agonist resulting in about a 50% effect on [3H]MK-801 binding; rat cortex/hippocampus membranes; glutamate 10 μM, 2.5 nM [3H]MK-801, 1 hour room temperature; FIG. 2B
Description: In particular, compounds having agonist activity in this assay enhance MK-801 binding; conversely, compounds having antagonist activity inhibit MK-801 binding.
Preparation of membranes for the binding test required application of a series of standard methods. Unless otherwise specified, tissues and homogenates were kept on ice and centrifugations were conducted at 4° C. Homogenizations were conducted with an effort to minimize resulting rise in tissue/homogenate temperature. The membrane preparation included the following steps:
Homogenize tissue in twenty volumes of 0.32 M sucrose/5 mM Tris-Acetate (pH 7.4) with 20 strokes of a glass/teflon homogenizer.
Centrifuge tissue at 1000×g, 10 minutes. Save supernatant. Resuspend pellet in small volume of buffer and homogenize again. Centrifuge the homogenized pellet and combine the supernatant with the previous supernatant.
Centrifuge the combined supernatants at 40,000×g, for 30 minutes. Discard the supernatant. […]
The assay was started by the addition of 2.5 nM [^3 H]MK-801 (23.9 Ci/mmol), which binds to the ion channel associated with NMDA receptors. […] Bound radioactivity was separated from free by filtration, using a TOMTEC harvester. Antagonist activity was indicated by decreasing radioactivity associated with the NMDA receptor with increasing concentration of the tested ligand.

[3] = QT-6 cells transfected with GlyT-1c, 50 nM [3H]glycine, 20 min at 37° C, read-out: Effect Via GlyT-1c, pIC50 (converted)
[4] = QT-6 cells transfected with GlyT-2, 50 nM [3H]glycine, 20 min at 37° C, read-out: Effect Via GlyT-2, pIC50 (converted)

Compound	IC50 (GlyT-1c; [3]) [µM]	selectivity GlyT-1c relative to GlyT-2 (GlyT-1c)	IC50 (GlyT-1c) [µM]	IC50 (GlyT-2) [µM]	other results
O=C(Nc1ccccc1)N[C@@H]1C[C@@H](C(=O)O)Nc2cc(Cl)cc(Cl)c21 (relative stereo) [L-689,560]	–	–	–	–	IC50 [1]: ~0.5 µM; blockade of NMDA-caused accumulation of 45Ca++ (NMDA receptor): blocked
Clc1ccc(C(c2ccc(Cl)cc2)n2cc[n+](CC(OCc3ccc(Cl)cc3Cl)c3ccc(Cl)cc3Cl)c2)cc1 (stereo not shown) [ZA]	0.912	selective for GlyT-1c relative to GlyT-2	–	–	IC50 (GlyT-2; [4]): 3.09 µM
CC(C)(C)c1ccc(C(O)CCCN2CCC(C(O)(c3ccccc3)c3ccccc3)CC2)cc1 (stereo not shown) [ZB]	–	selective for GlyT-1c relative to GlyT-2	4.27	17	–
CC(Cc1ccccc1)NCCC(c1ccccc1)c1ccccc1 (stereo not shown) [ZC]	–	selective for GlyT-1c relative to GlyT-2	6.46	14.1	–
CSc1ccc2c(c1)N(CCC1CCCCN1C)c1ccccc1S2 (stereo not shown) [ZD]	9.55	–	–	–	–
CC(NCCC(c1ccccc1)c1ccccc1)c1ccccc1 (stereo not shown) [ZE]	–	selective for GlyT-1c relative to GlyT-2	12.9	20.9	–
CN1CCC(=C2c3ccccc3CCc3ccccc32)CC1 [ZF]	21.4	reverse selectivity	–	–	IC50 (GlyT-2; [4]): 14.5 µM
NCC(=O)O [glycine]	–	–	–	–	EC50 [2]: ~1 µM
